Measurements published in article PMC9989926, “Zebrafish and medaka T1R (taste receptor type 1) proteins mediate highly sensitive recognition of L‐proline” (FEBS Open Bio, 2023).

Legend:
zfT1R2a/zfT1R3 = biological target: T1, zfT1R2a/zfT1R3 (Danio rerio, UniProt Q2MHK9+Q2MHL1, Q2MHK9:Y247H); experiment: FLIPR Calcium […] cell-based calcium assay, FlexStation […]
T1 construct: gene tas1r2.1; entire coding regions, stably co-expressed with chimeric G-protein G16gust44 in Flp-In 293 cells; heterodimer; T1R3 clone Y247H (C741T); with Taste receptor type 1 member 3
T1 sequence (Q2MHL1 26-825): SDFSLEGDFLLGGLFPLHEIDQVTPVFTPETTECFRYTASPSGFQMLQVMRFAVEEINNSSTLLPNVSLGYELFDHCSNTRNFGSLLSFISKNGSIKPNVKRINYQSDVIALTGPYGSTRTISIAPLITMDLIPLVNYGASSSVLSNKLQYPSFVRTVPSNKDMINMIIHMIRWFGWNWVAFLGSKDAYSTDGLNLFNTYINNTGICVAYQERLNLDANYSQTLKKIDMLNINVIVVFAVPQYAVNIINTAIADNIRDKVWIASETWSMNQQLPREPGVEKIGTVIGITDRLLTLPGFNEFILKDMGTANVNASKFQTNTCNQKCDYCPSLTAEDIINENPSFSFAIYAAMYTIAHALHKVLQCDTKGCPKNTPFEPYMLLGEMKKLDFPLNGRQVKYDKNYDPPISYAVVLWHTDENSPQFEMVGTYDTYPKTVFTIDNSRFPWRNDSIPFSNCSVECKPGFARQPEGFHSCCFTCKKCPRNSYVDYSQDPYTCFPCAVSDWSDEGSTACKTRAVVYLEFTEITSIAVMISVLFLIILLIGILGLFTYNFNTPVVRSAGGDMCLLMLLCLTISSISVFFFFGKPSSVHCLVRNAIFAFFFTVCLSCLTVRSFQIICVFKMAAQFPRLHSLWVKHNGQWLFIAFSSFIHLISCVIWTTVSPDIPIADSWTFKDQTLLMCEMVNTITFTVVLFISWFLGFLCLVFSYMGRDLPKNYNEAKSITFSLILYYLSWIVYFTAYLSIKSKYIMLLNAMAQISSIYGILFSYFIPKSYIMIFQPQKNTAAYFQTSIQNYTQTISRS
T1 sequence (Q2MHK9 25-850 Y247H): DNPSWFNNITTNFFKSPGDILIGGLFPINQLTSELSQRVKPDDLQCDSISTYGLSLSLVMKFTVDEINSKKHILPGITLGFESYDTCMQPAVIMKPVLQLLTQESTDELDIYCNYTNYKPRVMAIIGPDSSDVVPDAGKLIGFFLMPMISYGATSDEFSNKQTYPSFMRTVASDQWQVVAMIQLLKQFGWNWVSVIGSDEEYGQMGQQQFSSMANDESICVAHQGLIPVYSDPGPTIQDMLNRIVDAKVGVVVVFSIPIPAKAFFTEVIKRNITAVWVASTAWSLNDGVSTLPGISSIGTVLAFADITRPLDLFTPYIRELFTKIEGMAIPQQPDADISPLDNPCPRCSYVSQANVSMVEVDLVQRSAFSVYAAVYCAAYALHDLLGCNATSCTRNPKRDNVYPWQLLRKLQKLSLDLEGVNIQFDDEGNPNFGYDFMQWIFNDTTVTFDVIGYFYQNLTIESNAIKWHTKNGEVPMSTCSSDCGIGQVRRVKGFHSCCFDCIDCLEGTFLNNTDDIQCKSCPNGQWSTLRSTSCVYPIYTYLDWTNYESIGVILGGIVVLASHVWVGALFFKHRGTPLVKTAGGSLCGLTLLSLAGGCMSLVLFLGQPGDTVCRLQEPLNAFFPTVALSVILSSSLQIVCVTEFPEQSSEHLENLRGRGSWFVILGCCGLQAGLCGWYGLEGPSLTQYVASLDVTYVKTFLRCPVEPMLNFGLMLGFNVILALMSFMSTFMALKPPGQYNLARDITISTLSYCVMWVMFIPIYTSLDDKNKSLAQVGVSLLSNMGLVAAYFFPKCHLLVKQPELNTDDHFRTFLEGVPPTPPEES

mfT1R2b/mfT1R3 = biological target: T2, mfT1R2b/mfT1R3 (Oryzias latipes, UniProt Q2MHK2+Q2MHK4); experiment: as above
T2 construct: gene TAS1R2b; entire coding regions, stably co-expressed with chimeric G-protein G16gust44 in Flp-In 293 cells; heterodimer; with Taste receptor type 1 member 3
T2 sequence (Q2MHK4 entry or part of it): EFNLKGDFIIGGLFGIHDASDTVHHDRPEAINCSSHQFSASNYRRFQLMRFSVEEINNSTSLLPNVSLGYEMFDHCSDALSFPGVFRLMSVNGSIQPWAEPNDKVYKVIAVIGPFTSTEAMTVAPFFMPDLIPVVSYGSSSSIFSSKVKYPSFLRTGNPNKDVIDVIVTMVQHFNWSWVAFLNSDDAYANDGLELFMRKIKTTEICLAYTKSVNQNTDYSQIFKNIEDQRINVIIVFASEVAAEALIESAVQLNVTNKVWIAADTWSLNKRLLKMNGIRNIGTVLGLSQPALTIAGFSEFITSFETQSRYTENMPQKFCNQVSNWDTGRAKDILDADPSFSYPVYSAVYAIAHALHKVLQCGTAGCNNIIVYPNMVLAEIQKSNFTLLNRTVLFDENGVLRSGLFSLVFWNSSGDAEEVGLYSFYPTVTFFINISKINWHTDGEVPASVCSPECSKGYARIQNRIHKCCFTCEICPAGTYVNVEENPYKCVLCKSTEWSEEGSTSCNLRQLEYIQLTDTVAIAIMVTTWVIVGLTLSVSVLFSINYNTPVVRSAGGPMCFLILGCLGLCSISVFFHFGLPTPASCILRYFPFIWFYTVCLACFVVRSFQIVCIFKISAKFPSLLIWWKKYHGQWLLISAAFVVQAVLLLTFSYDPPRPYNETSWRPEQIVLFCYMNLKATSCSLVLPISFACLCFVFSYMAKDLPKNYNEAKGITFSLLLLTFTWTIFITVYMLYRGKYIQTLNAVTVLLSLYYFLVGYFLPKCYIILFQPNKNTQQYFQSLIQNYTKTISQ
T2 sequence (Q2MHK2 entry or part of it): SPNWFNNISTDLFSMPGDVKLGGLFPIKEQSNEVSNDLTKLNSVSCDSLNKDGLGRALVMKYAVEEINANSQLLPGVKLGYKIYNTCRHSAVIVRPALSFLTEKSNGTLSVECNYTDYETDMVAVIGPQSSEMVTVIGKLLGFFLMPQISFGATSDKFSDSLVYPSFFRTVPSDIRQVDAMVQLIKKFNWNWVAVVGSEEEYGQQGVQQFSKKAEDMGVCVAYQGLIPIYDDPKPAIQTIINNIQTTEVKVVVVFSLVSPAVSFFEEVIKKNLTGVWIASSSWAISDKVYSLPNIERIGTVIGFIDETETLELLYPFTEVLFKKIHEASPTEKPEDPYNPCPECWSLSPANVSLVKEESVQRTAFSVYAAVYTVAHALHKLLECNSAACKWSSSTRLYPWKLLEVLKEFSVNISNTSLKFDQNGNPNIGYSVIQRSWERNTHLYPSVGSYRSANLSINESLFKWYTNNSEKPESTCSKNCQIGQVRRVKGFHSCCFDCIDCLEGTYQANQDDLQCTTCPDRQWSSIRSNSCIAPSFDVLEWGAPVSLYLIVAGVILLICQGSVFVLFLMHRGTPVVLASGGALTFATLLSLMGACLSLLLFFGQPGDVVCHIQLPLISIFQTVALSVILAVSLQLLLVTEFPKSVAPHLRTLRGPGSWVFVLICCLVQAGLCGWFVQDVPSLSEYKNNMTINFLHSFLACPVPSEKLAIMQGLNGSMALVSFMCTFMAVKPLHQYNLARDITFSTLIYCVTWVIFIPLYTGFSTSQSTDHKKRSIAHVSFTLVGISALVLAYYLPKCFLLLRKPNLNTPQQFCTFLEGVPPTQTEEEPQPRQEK

mfT1R2a/mfT1R3 = biological target: T3, mfT1R2a/mfT1R3 (Oryzias latipes, UniProt Q2MHK2+Q2MHK5); experiment: as above
T3 construct: gene TAS1R2a; entire coding regions, stably co-expressed with chimeric G-protein G16gust44 in Flp-In 293 cells; heterodimer; with Taste receptor type 1 member 3
T3 sequence (Q2MHK2 entry or part of it): as above
T3 sequence (Q2MHK5 entry or part of it): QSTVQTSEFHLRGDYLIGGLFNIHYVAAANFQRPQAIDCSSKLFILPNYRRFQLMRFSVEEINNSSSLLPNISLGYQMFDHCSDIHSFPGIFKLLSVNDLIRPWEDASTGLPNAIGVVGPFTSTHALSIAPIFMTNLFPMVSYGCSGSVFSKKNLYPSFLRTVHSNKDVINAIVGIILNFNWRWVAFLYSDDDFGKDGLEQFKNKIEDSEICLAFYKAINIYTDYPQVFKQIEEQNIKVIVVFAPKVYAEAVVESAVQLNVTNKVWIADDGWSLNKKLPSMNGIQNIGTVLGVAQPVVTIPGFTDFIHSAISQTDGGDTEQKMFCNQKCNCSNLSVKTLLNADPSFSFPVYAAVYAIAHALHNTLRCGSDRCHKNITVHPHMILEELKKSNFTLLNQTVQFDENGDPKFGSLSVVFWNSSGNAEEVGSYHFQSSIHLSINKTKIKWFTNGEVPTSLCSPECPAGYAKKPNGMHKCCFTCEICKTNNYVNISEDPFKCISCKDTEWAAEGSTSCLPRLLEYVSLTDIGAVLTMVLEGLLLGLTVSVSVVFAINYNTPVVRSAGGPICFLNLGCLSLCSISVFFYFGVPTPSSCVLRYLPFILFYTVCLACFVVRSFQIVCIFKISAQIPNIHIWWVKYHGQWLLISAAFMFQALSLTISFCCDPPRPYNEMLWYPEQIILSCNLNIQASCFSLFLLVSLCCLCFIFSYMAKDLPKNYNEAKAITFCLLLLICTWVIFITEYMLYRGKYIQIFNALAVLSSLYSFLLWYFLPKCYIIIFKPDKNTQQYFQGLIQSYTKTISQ

zfT1R2b/zfT1R3 = biological target: T4, zfT1R2b/zfT1R3 (Danio rerio, UniProt A4PHQ8+Q2MHK9, Q2MHK9:Y247H); experiment: as above
T4 construct: gene tas1r2.2; entire coding regions, stably co-expressed with chimeric G-protein G16gust44 in Flp-In 293 cells; heterodimer; T1R3 clone Y247H (C741T); with Taste receptor type 1 member 3
T4 sequence (A4PHQ8 18-823): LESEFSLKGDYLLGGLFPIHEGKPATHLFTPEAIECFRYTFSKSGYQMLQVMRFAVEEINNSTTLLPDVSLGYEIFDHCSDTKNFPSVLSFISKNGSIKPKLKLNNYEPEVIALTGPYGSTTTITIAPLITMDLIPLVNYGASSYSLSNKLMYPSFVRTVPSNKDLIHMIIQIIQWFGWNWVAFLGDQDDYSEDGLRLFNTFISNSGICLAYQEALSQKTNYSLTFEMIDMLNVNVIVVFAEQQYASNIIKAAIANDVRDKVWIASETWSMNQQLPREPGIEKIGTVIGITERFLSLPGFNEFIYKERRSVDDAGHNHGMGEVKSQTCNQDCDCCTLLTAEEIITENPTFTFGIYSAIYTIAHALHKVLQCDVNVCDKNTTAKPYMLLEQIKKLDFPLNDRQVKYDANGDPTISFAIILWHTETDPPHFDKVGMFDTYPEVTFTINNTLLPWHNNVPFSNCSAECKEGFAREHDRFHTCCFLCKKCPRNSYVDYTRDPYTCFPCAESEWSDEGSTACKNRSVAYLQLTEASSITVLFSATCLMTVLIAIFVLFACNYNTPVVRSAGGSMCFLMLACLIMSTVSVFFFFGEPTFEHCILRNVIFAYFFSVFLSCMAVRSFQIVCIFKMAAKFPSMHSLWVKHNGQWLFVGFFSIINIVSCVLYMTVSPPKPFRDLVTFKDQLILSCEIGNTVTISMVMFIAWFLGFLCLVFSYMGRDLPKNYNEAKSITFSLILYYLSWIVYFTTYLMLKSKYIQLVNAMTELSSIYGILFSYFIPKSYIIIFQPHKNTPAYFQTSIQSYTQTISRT
T4 sequence (Q2MHK9 25-850 Y247H): T1 sequence (Q2MHK9 25-850 Y247H)

mfT1R2c/mfT1R3 = biological target: T5, mfT1R2c/mfT1R3 (Oryzias latipes, UniProt Q2MHK2+Q2MHK3, Q2MHK3:V394L); experiment: cell-based
T5 construct: gene TAS1R2c
T5 sequence (Q2MHK2 entry or part of it): as the sequence (Q2MHK2 entry or part of it) above
T5 sequence (Q2MHK3 entry or part of it V394L): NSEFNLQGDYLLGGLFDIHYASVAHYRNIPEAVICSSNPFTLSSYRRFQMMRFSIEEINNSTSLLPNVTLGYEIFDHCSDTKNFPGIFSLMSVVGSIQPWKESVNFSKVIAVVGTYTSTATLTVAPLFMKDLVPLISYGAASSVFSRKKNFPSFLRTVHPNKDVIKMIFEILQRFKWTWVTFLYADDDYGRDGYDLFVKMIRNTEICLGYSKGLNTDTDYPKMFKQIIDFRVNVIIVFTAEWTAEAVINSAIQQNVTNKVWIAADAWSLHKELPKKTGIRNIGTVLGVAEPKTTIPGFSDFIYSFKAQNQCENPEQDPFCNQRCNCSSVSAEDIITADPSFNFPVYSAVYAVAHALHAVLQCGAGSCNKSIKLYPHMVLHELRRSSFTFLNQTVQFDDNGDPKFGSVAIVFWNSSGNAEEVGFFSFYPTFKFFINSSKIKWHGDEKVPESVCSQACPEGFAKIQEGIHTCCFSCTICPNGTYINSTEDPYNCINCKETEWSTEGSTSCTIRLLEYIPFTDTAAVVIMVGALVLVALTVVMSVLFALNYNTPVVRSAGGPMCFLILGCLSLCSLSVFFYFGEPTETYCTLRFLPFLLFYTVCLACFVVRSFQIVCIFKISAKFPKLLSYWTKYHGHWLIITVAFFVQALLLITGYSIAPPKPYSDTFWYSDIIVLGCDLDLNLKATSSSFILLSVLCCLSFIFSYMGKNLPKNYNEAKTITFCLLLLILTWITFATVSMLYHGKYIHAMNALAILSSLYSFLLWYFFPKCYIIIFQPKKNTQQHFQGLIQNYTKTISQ

**Q.** `C[C@H](N)C(=O)O` [L-alanine] was tested. Which EC50 (zfT1R2a/zfT1R3) did it give?
**A.** The EC50 was 220 ± 18 µM.

**Q.** What about the EC50 (mfT1R2b/mfT1R3) of the same compound?
**A.** Its EC50 is 1750 ± 140 µM.

**Q.** And the EC50 (mfT1R2a/mfT1R3)?
**A.** The EC50 was 1230 ± 70 µM.

**Q.** And the EC50 (zfT1R2b/zfT1R3)?
**A.** The EC50 was 2030 ± 150 µM.

**Q.** How did the EC50 (mfT1R2a/mfT1R3) turn out when `NC(=O)CC[C@H](N)C(=O)O` [L-glutamine] was run?
**A.** The EC50 was 58.8 ± 7.6 µM.

**Q.** Which EC50 (zfT1R2a/zfT1R3) does the source give for `O=C(O)[C@@H]1CCCN1` [L-proline] here?
**A.** The EC50 was 164 ± 36 µM.

**Q.** What about the EC50 (mfT1R2c/mfT1R3) of the same compound?
**A.** The EC50 was 4.43 ± 0.38 µM.

**Q.** And the EC50 (mfT1R2b/mfT1R3)?
**A.** Its EC50 is 3050 ± 220 µM.

**Q.** And the EC50 (zfT1R2b/zfT1R3)?
**A.** Its EC50 is 1720 ± 350 µM.
